Values after ≈ are worked out from the molar mass of the structure shown.
Legend:
[1] = system: P388 lymphocytic leukemia cells; details: Choi et al., Planta Medica 1988; cited from earlier work
human melanomas = details: athymic mice carrying human melanomas; Nature Medicine 1995, WO 96/29068; cited from earlier work
[2] = system: lung cancer cells (L 132); test: MTT cytotoxicity assay, lung cancer; format: cell-based, human; details: 72 hours
Experimental: (§1) After 72 hours, the assay was terminated and percent cyotoxicities calculated.

human leukemia (MOLT-4) = test: MTT cytotoxicity assay, leukemia; format: cell-based; details: 72 hours
Experimental: as §1

[3] = system: prostate cancer cells (DU 145); test: MTT cytotoxicity assay, prostate cancer; format: cell-based, human; details: 72 hours
Experimental: as §1

[4] = system: ovarian cancer cells (PA-1); test: MTT cytotoxicity assay, ovarian cancer; format: cell-based, human; details: 72 hours
Experimental: as §1

[5] = system: colon cancer cells (HT29); test: MTT cytotoxicity assay, colon cancer; format: cell-based, human; details: 72 hours
Experimental: as §1

lymphoma cells (U937) = test: MTT cytotoxicity assay, lymphoma; format: cell-based, human; details: 72 hours
Experimental: as §1

[6] = system: laryngeal cancer cells(HeP.2); test: MTT cytotoxicity assay, laryngeal cancer; format: cell-based, human; details: 72 hours
Experimental: as §1

Compound: C=C(C)[C@@H]1CC[C@]2(C(=O)O)CC[C@]3(C)[C@H](CC[C@@H]4[C@@]5(C)CC[C@H](OC(C)=O)C(C)(C)[C@@H]5CC[C@]43C)[C@@H]12 [betulinic acid 3-monoacetate]
- ED50 [1]: 10.5 µg/mL (≈ 21.1 µM)

Compound: C=C(C)[C@@H]1CC[C@]2(C(=O)OC)CC[C@]3(C)[C@H](CC[C@@H]4[C@@]5(C)CC[C@H](O)C(C)(C)[C@@H]5CC[C@]43C)[C@@H]12 [betulinic acid methyl ester]
- ED50 [1]: 6.8 µg/mL (≈ 14.4 µM)

Compound: C=C(C)[C@@H]1CC[C@]2(C(=O)O)CC[C@]3(C)[C@H](CC[C@@H]4[C@@]5(C)CC[C@H](O)C(C)(C)[C@@H]5CC[C@]43C)[C@@H]12 [betulinic acid]
- toxicity (human melanomas): without toxicity

Compound: CC(C)C1CCC2(C(=O)O)CCC3(C)C(CCC4C5(C)CCC(=NOCc6ccc([N+](=O)[O-])cc6)C(C)(C)C5CCC43C)C12 (stereo not shown) [compound 1098]
- ED50 Lung L132 [2]: 1.3 µg/mL (≈ 2.14 µM)
- ED50 Leukemia MOLT-4 (human leukemia (MOLT-4)): 0.5 µg/mL (≈ 0.824 µM)
- ED50 Prostate DU145 [3]: 1.5 µg/mL (≈ 2.47 µM)
- ED50 Ovary PA-1 [4]: 0.9 µg/mL (≈ 1.48 µM)
- ED50 Colon HT-29 [5]: 2.6 µg/mL (≈ 4.28 µM)
- ED50 Lymphoma 0 937 (lymphoma cells (U937)): 0.4 µg/mL (≈ 0.659 µM)
- ED50 Larynx Hep.2 [6]: 1.0 µg/mL (≈ 1.65 µM)
